This passage reports Kd and IC50 results from PMC11872463, “Identification of a group of 9-amino-acridines that selectively downregulate regulatory T cell functions through FoxP3” (iScience, 2025).

The target of assay [1] is T1, FoxP3 (Homo sapiens, UniProt Q9BZS1).
T1 construct: His-FoxP3 full-length (SPR); His-FoxP3-ΔN (182-421aa) (AlphaScreen, EMSA)
T1 sequence (Q9BZS1 182-421): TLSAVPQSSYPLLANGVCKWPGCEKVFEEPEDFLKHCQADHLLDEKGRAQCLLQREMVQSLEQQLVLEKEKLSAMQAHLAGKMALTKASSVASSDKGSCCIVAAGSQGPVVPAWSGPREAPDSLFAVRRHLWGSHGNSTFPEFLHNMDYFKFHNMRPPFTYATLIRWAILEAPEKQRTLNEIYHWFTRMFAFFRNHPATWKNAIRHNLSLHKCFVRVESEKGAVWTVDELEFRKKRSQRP
Briefly: biochemical. Further details: SPR on Biacore T200, His-FoxP3 immobilized on CM5 chip, affinity. Here is the method:
To explore how 9-amino acridines downregulate FoxP3, directly or indirectly, a low-molecular-weight compound screening (low molecular weight [LMW] screen) was performed using surface plasmon resonance (SPR) analysis to determine affinities between FoxP3 and all the compounds listed in Table 1. […] In contrast, we observed low or no affinity for FoxP3 with compounds that had little or no effects on FoxP3 downregulation (such as MP20 and MP25). Furthermore, we confirmed the concentration-dependent binding of QDD and MP4 to immobilized FoxP3 protein (Figure S6B) with dissociation constant (KD) values corresponding to the observed IC50 in the cell-based assay, implying that the function of 9-amino-acridine analogs on FoxP3 regulation might be due to their direct binding ability. SPR, concentration-dependent binding to immobilized FoxP3 (KD not printed in main text); IC50 is from AlphaScreen FoxP3-DNA competition; EMSA on FoxP3 | we confirmed the concentration-dependent binding of QDD and MP4 to immobilized FoxP3 protein (Figure S6B)

Assay [2] concerns the target T1, FoxP3. Briefly: SPR, concentration-dependent binding to immobilized FoxP3 (KD not given in main text); IC50 is from AlphaScreen FoxP3-DNA competition; EMSA. From the text:
SPR, concentration-dependent binding to immobilized FoxP3 (KD not printed in main text); IC50 is from AlphaScreen FoxP3-DNA competition; EMSA on FoxP3 | we confirmed the concentration-dependent binding of QDD and MP4 to immobilized FoxP3 protein (Figure S6B)
(In SPR one partner is held on a chip, and binding of the other changes the refractive index at the surface.)

Assay [3] has as its system T2, FoxP3.
T2 construct: endogenous, primary CD4+ T cells
Briefly: cells. On the set-up: species or system primary human CD3+ T cells; flow cytometry of FoxP3+ % in CD4+ T cells, normalized to mock (FoxP3 down-regulation). As to conditions: FoxP3 down-regulation in CD4+ T cells, 24 h. Here is the method: To search for potential small molecular FoxP3 inhibitors, we screened the Prestwick library of approved drugs (1,522 compounds) for compounds that regulated the expression of FoxP3 using a novel high-throughput flow cytometry protocol. Primary CD3^+ T cells from healthy donors were treated with compounds from the Prestwick library at 10 μM for 16 h, followed by a high-throughput flow cytometry analysis measuring FoxP3% in CD4^+ T cells (for workflow, see Figure S1A). Compounds that reduced FoxP3 levels compared to DMSO were selected for further validation. The first verified hit was quinacrine dihydrochloride dihydrate (QDD), where we observed a concentration-dependent FoxP3 downregulation with an IC50 of less than 5 μM in all donors tested (Figures 1A and 1B; Table 1, group 0; Figure S2A). QDD was also confirmed to downregulate FoxP3 in Tregs by gating out CD127^+ cells in both non-stimulated and stimulated T cells (Figure S1B). […] In the first round, compounds MP2, MP3, MP4, and MP5 were identified to be working efficiently in downregulating FoxP3 levels (Table 1, group 2; Table S1; Figure S2C). […] Therefore, a small library of similar acridine and acridinone compounds (Table 1, group 3 and 4; Table S1; Figures S2D and S2E) was assembled by in-silico prediction and assessed for their effects on FoxP3 regulation. […]

pIC50, pKd: −log10 of the molar value. Where a name gives a salt, the structure may show the parent alone. Read-outs that look alike come from different tables or passages of the source.

One may read the pKd as −log10 of the Kd, conventionally taken in molar units. A high value points to a low Kd. A word on the pIC50: it is −log10 of the IC50, conventionally taken in molar units. `CCN(CC)CCCC(C)Nc1c2cc(OC)ccc2nc2cc(Cl)c(N)cc12` (centres unmarked) [MP4, 3-chloro-N9-[5-(diethylamino)pentan-2-yl]-7-methoxyacridine-2,9-diamine]: the pKd at FoxP3 [1] was 5.16. Besides, the pIC50 at FoxP3 [2] (read-out: IC50) is 6.43.

For `COc1cc(NC(C)CCCN)c2ncccc2c1` (centres unmarked) [Primaquine], the pIC50 in the assay on FoxP3 [3] was less than 4.00.

`CCN(CC)CCCC(C)Nc1c2ccc(Cl)cc2nc2ccc(OC)cc12` (centres unmarked) [QDD, 6-chloro-N-[5-(diethylamino)pentan-2-yl]-2-methoxyacridin-9-amine dihydrate dihydrochloride] gave a pKd at FoxP3 [1] of 5.39. On FoxP3 [2], this molecule had a negative-log IC50 (pIC50) of 5.70.
